# Measurements published in patent US20050118290A1, “Compositions and method for treatment of steroid/nuclear receptor-mediated diseases” (University of Singapore, priority 2003, published 2005).
# Experiments:
# Format in all cases: cell-based
# [1] = target: T1, PPARα (Homo sapiens, UniProt Q07869); assay: Chimeric Gal4DBD-PPARαLBD receptor / UASg-luciferase reporter gene assay in HeLa cells; settings: with WY14643 30×10^−6M
# T1 construct: expressed in transfected cells; host or cells: HeLa
# T1 sequence (Q07869 239-466 limits assumed): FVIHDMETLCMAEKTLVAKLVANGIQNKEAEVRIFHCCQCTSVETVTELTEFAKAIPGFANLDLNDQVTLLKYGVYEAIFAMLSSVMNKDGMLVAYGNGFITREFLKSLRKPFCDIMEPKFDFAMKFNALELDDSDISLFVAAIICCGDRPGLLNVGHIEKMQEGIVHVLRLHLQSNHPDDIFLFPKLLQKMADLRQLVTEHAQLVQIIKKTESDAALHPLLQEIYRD
# Excerpt: (§1) In an example of such a reporter gene assay, a plasmid containing chimeric Ga14DBD-PPARLBD receptor cDNA was constructed by excising the ligand binding domain (LBD) of full length PPARγ and PPARα and ligating the resulting fragments in frame to the Ga14-DNA binding domain (DBD) of Saccharomyces cerevisiae in a pM vector (Clontech). Specifically, to construct Ga14DBD-PPARγLBD plasmid, pSG5 expression vector (Stratagene) containing full length PPARγ was excised with Rsa I and blunt ligated to Hind III site of pMGa14DBD expression plasmid (Clontech). To construct Ga14DBD-PPARαLBD plasmid, pSG5 expression vector (Stratagene) containing full length PPARα was excised with BstU I and BamH I and blunt-end ligated in frame to BamH I site of pMGa14DBD expression plasmid (Clontech). […] Ga14 DBD binds very strongly to the exogenous UASg promoter, thereby giving rise to a sensitive and specific assay. To measure PPARγ and PPARα agonist activity, HeLa cells were grown in 24-well microtiter plates and then transiently co-transfected with the two plasmids (chimeric PPAR receptor and UASg reporter gene) using Lipofectamine (Invitrogen). […] Concurrently, cells exposed to known PPAR ligands served as positive controls. Replicate wells, exposed to the vehicle solvent (i.e., ethanol or methanol) in which herbal extracts were dissolved, were used as negative controls. After the 40 hr incubation period, cells were rinsed with phosphate buffered saline (PBS), lysis buffer was added, and cell lysates were collected for measurement of luciferase activity using a luminometer. […] All data points are in triplicate. The data points represent the mean of triplicate wells. Luciferase activity in such an assay accurately reflects the activity of any ligands on PPARγ or PPARα.
# [2] = target: T2, human androgen receptor (Homo sapiens, UniProt P10275); assay: AR (ARE)2-Luc luciferase reporter gene assay in HeLa cells
# T2 construct: expressed in transfected cells; host or cells: HeLa
# T2 sequence (P10275 1-920): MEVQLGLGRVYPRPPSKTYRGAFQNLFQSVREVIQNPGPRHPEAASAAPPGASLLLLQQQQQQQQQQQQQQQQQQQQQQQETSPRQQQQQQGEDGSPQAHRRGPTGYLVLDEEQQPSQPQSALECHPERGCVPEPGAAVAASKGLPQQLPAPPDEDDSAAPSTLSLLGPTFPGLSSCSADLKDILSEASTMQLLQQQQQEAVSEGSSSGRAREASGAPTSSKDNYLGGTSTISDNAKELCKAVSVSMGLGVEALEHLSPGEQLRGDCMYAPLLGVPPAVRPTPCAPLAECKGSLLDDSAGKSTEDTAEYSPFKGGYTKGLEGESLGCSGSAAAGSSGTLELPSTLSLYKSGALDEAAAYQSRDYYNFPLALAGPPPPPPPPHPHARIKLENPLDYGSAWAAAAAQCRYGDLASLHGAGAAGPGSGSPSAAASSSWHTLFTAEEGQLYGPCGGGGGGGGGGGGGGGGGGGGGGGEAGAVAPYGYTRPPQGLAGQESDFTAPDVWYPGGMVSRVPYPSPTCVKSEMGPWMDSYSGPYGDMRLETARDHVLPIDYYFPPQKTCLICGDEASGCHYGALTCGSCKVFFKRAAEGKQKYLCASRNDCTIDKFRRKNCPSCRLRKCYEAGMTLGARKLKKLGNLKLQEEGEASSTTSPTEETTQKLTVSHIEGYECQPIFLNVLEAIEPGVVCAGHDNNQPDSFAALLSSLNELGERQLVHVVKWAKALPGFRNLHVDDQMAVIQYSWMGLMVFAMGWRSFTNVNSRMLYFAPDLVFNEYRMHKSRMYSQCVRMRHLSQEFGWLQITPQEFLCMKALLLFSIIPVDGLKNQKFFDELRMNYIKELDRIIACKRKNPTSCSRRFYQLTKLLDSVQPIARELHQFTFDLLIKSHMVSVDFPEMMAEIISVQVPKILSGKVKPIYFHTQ
# Procedure: (§2) The capacity of HQ extract to activate other steroid receptors, namely AR, PR, GR, ERα and ERβ was examined. […] The (ARE)2-Luc plasmid consist of two repeats of Androgen Response Element (ARE) cloned upstream of the Luciferase Reporter gene in a pGL3-Basic vector (Promega).
# (§3) AR, PR, GR and ERα and […] were determined by comparing luciferase activity in test cells with control cells exposed to vehicle (i.e., ethanol or methanol) only, analogous to the determination of PPAR activity as described in the previous examples.
# [3] = target: T3, Progesterone Receptor (Homo sapiens, UniProt P06401); assay: PR (ARE)2-Luc luciferase reporter gene assay; settings: Example 16; progesterone 100×10^−9M, 10 × 10^−9M (Table 11)
# T3 construct: expressed in transfected cells; host or cells: HeLa (named for the formononetin and daidzein experiments)
# T3 sequence (P06401 1-933): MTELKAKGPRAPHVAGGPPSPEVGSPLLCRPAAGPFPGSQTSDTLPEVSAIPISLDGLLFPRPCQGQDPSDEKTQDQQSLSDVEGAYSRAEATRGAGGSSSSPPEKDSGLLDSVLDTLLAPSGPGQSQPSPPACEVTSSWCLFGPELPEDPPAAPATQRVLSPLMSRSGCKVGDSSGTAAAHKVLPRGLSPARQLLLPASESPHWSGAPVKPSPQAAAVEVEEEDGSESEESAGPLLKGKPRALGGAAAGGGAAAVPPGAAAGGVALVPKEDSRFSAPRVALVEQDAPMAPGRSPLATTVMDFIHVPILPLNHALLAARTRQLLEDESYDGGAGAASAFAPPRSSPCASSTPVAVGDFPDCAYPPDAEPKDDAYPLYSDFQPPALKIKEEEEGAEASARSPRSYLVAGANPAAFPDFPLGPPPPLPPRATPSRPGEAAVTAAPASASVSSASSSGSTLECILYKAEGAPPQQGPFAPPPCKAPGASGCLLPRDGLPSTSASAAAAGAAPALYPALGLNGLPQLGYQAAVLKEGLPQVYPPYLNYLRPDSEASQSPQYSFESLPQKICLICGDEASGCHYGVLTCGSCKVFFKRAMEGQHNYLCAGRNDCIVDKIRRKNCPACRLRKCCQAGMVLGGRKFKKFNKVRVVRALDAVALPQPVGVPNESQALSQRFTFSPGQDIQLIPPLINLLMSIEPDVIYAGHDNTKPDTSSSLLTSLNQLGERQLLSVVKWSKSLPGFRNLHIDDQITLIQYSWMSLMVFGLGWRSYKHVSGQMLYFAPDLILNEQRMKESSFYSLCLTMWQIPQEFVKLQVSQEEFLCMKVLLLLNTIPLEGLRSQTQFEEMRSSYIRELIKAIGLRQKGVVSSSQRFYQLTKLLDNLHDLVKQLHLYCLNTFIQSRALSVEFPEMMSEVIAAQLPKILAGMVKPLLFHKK
# Procedure: as §2, §3
# [4] = target: T4, PPARγ (Homo sapiens, UniProt P37231); assay: Chimeric Gal4DBD-PPARγLBD receptor / UASg-luciferase reporter gene assay in HeLa cells
# T4 construct: expressed in transfected cells; host or cells: HeLa
# T4 sequence (P37231 238-503 limits assumed): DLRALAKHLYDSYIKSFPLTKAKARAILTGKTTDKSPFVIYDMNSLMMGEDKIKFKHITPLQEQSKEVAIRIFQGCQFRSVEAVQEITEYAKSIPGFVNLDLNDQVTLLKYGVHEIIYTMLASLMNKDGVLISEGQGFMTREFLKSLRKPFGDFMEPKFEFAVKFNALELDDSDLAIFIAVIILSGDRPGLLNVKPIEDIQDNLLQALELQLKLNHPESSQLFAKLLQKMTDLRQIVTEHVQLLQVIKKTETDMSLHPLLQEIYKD
# Excerpt: as §1
# [5] = GW9662 0.1 ×10^−6M (first line)
# [6] = GW9662 0.1 ×10^−6M (second line, r12)
compound,measurement,setting,value
"3′,7-Dihydroxy-4′-methoxyisoflavone [calycosin]",increase of the activity of maximal doses of PPARα agonist,[1],7 fold
same,increase of the activity of maximal doses of AR agonist,[2]; with dihydrotestosterone 1×10^−9M,3 fold
same,increase of the activity of maximal doses of PR agonist,[3],3 fold
"CCCCC/C=C/C=C1/C(=O)C=C[C@@H]1C/C=C\CCCC(=O)O [Compound 15DPGJ2, 15-deoxy-δ12,14, Prostaglandin J2, reference compound]",EC50 (PPARγ activity),"[4]; FIG. 1A, HeLa cells",0.5 µg/mL
"O=C(Nc1ccccc1)c1cc([N+](=O)[O-])ccc1Cl [GW9662, reference compound]","Luciferase activity (% Pioglitazone 30 × 100^−6M ± SE), Piogliltazone (30 × 10^−6M)",[4]; [5],97 ± 23.8%
same,"Luciferase activity (% Pioglitazone 30 × 100^−6M ± SE), Vehicle (DMSO)",[4]; [5],13.8 ± 0.207%
same,"Luciferase activity (% Pioglitazone 30 × 100^−6M ± SE), Piogliltazone (30 × 10^−6M)",[4]; [6],114 ± 5%
same,"Luciferase activity (% Pioglitazone 30 × 100^−6M ± SE), Vehicle (DMSO)",[4]; [6],13.8 ± 2.28%
same,"Luciferase activity (% Pioglitazone 30 × 100^−6M ± SE), Piogliltazone (30 × 10^−6M)",[4]; GW9662 1 ×10^−6M,77.2 ± 11.4%
same,"Luciferase activity (% Pioglitazone 30 × 100^−6M ± SE), Vehicle (DMSO)",[4]; GW9662 1 ×10^−6M,23.5 ± 2.74%
same,"Luciferase activity (% Pioglitazone 30 × 100^−6M ± SE), Piogliltazone (30 × 10^−6M)",[4]; GW9662 10 ×10^−6M,40.6 ± 12.3%
same,"Luciferase activity (% Pioglitazone 30 × 100^−6M ± SE), Vehicle (DMSO)",[4]; GW9662 10 ×10^−6M,39.3 ± 4.38%
same,PPARγ activity on its own,[4]; Table 12,weak PPARγ agonistic activity
same,doses that inhibited the PPARγ effects of pioglitazone,"[4]; with pioglitazone 30 × 10^−6M, dose-dependent",above 1 ×10^−6M
"CC1(COc2ccc(CC3SC(=O)NC3=O)cc2)CCCCC1 (stereo not shown) [ciglitazone, reference compound]","Luciferase activity ± SEM (% ciglitazone 10 × 10^−6 M), substance alone",[4]; 0.1 ×10^−6 g/mL,15.4 ± 0.81%
same,"Luciferase activity ± SEM (% ciglitazone 10 × 10^−6 M), substance alone",[4]; 0.3 ×10^−6 g/mL,21.7 ± 1.52%
same,"Luciferase activity ± SEM (% ciglitazone 10 × 10^−6 M), substance alone",[4]; 1.0 ×10^−6 g/mL,55.3 ± 7.99%
same,"Luciferase activity ± SEM (% ciglitazone 10 × 10^−6 M), substance alone",[4]; 3.0 ×10^−6 g/mL,100 ± 6.13%
same,"Luciferase activity ± SEM (% ciglitazone 10 × 10^−6 M), HQ extract + ciglitazone 10 × 10^−6 M",[4]; HQ extract 0.0 ×10^−6 g/mL (ciglitazone 10 × 10^−6 M only),100 ± 2.91%
O=c1c(-c2ccc(O)cc2)coc2cc(O)cc(O)c12 [genistein],"Luciferase activity (Fold ± SE), PPAR activity at fixed dose","[4]; GW9662 0 ×10^−6M, fixed doses: HQ Water extract 8 × 10^−6 g/mL, HQ DCM extract 50 × 10^−6 g/mL, Formononetin, Genistein 10 × 10^−6 M",7.37 ± 0.128 Fold
same,"Luciferase activity (Fold ± SE), PPAR activity at fixed dose","[4]; GW9662 0.3 ×10^−6M, fixed doses",93.6 ± 2.47 Fold
same,"Luciferase activity (Fold ± SE), PPAR activity at fixed dose","[4]; GW9662 1 ×10^−6M, fixed doses",83.9 ± 4.37 Fold
same,"Luciferase activity (Fold ± SE), PPAR activity at fixed dose","[4]; GW9662 3 ×10^−6M, fixed doses",82.5 ± 2.63 Fold
same,"Luciferase activity (Fold ± SE), PPAR activity at fixed dose","[4]; GW9662 10 ×10^−6M, fixed doses",67.4 ± 1.52 Fold
same,"Luciferase activity (Fold ± SE), PPAR activity at fixed dose","[4]; GW9662 30 ×10^−6M, fixed doses",39.5 ± 0.403 Fold
same,intrinsic agonistic AR activity,"[2]; 0.1 to 30×10^−6M, no dihydrotestosterone",does not display any intrinsic agohistic AR activity
same,further increase of the activity of saturating doses of dihydrotestosterone,"[2]; dihydrotestosterone 10×10^−9M, FIG. 2A",5 fold
same,effect on the activity of dihydrotestosterone on AR,"[2]; fixed 3×10^−6 M, dihydrotestosterone 0.01 to 10×10^−9M, FIG. 2B",augmented
